According to ChEMBL document CHEMBL3396985, “Nanomolar inhibitors of Mycobacterium tuberculosis glutamine synthetase 1: synthesis, biological evaluation and X-ray crystallographic studies” (Bioorg Med Chem Lett, 2015):
Converted amounts (≈) assume the structure as drawn. The source made the active and inactive calls. The rule behind the calls is not given here.

How the values were obtained:
[1] = Inhibition of Mycobacterium tuberculosis glutamine synthetase 1 assessed as reduction in ADP formation incubated 1 hr in presence of glutamate, ammonium chloride and ATP
[2] = Lipophilicity, log D of the compound; type: physicochemical; conditions: octanol/water
HepG2 = assay: Cytotoxicity against human HepG2 cells after 40 hrs by celltiter Glo assay; type: cell-based; conditions: HepG2, 40 h
[3] = tested on: Mycobacterium tuberculosis; assay: Antimycobacterial activity against Mycobacterium tuberculosis assessed as inhibition of microbial proliferation after 6 days by cell titer blue reagent based assay; type: functional; conditions: 144 h
[4] = tested on: Mycobacterium tuberculosis; assay: microbe, parasite or virus in culture; conditions: H37Rv ATCC 25618
Description: Antimycobacterial activity against Mycobacterium tuberculosis H37Rv ATCC 25618 assessed as inhibition of microbial proliferation

[5] = tested on: Mycobacterium tuberculosis; assay: ATP competitive inhibition of Mycobacterium tuberculosis glutamine synthetase 1 assessed as reduction in ADP formation incubated 1 hr in presence of glutamate, ammonium chloride and ATP

Compound | IC50 [1] [µM] | logD [2] | IC50 (HepG2) [µM] | IC80 [3] [µM] | MIC [3] [µM] | MIC [4] [µM] | inhibition [5]
O=c1c2nccn2c2c(n1Cc1ccccc1)-c1cccc(-c3ccccc3)c1C2 | 0.663 | 3.33 | 20 | 29 | 29 | – | –
O=c1[nH]c2c(n3ccnc13)Cc1c(Br)cccc1-2 | > 0.03 | 1.77 | > 30 | > 30 | > 30 | – | –
COc1cccc(-c2cccc3c2Cc2c-3n(CCCN(C)C)c(=O)c3nccn23)c1 | 0.084 | – | 15 | > 30 | > 30 | – | –
C=CCCn1c2c(n3ccnc3c1=O)Cc1c(-c3cccnc3)cccc1-2 | 0.007 | – | > 30 | > 30 | > 30 | – | –
C[S@](=N)(=O)CC[C@H](N)C(=O)O | – | – | – | – | – | 10 (≈ 1.8 µg/mL) | –
CC(=O)Nc1cccc2c1Cc1c-2[nH]c(=O)c2nccn12 | 2.1 | – | > 30 | > 30 | > 30 | – | –
O=c1c2nccn2c2c(n1C1CC1)-c1cccc(-c3ccccn3)c1C2 | 0.456 | – | > 30 | > 30 | > 30 | – | –
O=c1[nH]c2c(n3ccnc13)Cc1c(-c3ccccc3)cccc1-2 | 0.031 | 3.52 | > 30 | > 30 | > 30 | – | Active
C=CCn1c2c(n3ccnc3c1=O)Cc1c(-c3ccccc3)cccc1-2 | 0.333 | 2.7 | > 30 | > 30 | > 30 | – | –
O=c1[nH]c2c(n3ccnc13)Cc1c(-c3cccc(Cl)c3)cccc1-2 | 0.61 | 2.38 | 15 | 22 | 22 | – | –
COCCn1c2c(n3ccnc3c1=O)Cc1c(-c3ccccc3)cccc1-2 | 0.219 | – | 23 | > 30 | > 30 | – | –
COc1cccc(-c2cccc3c2Cc2c-3[nH]c(=O)c3nccn23)c1 | 0.051 | 1.87 | > 30 | > 30 | > 30 | – | –
CC(C)Cn1c2c(n3ccnc3c1=O)Cc1c(-c3cccnc3)cccc1-2 | 0.066 | – | > 30 | > 30 | > 30 | – | –
CN(C)CCCn1c2c(n3ccnc3c1=O)Cc1c(-c3cccnc3)cccc1-2 | 0.131 | – | > 30 | > 30 | > 30 | – | –
Cn1c2c(n3ccnc3c1=O)Cc1c(-c3ccccc3)cccc1-2 | 0.17 | 2.25 | > 30 | > 30 | > 30 | – | –
O=c1[nH]c2c(n3ccnc13)Cc1c-2cccc1-c1cccc2ncccc12 | 7 | 1.02 | > 30 | > 30 | > 30 | – | –
CN(C)CCCn1c2c(n3ccnc3c1=O)Cc1c(-c3ccccn3)cccc1-2 | 0.857 | – | > 30 | > 30 | > 30 | – | –
O=c1[nH]c2c(n3ccnc13)Cc1c(-c3cccnc3)cccc1-2 | 0.031 | 0.26 | > 30 | 29 | 29 | – | –
